Assay results published in patent US8748407B2 (The Research Foundation for the State University of New York, priority 2010, dated 2014).

Tests used:
GluA2Qflip [1] = biological target: T1, GluA2Qflip (Rattus norvegicus, UniProt P19491); experiment: Laser-pulse photolysis of caged glutamate, channel-opening kinetics; format: cell-based
T1 construct: expressed in transfected cells; host or cells: HEK-293S
Text: The use of the laser-pulse photolysis technique to measure the channel-opening kinetics has been described^7. […] In the laser-pulse photolysis measurement of channel opening, a single laser pulse at 355 nm with a pulse length of 8 ns was generated from a pulsed Q-switched Nd:YAG laser (Continuum, Santa Clara, Calif.). The pulse energy varied in the range of 200-800 μJ, measured at the end of an optical fiber (300 μm core diameter) into which the laser was coupled. […] The current amplitudes obtained from this calibration were compared with the amplitude from the laser measurement with reference to the dose-response relationship. These measurements also allowed us to monitor any damage to the receptors and/or the cell for successive laser experiments with the same cell^7.
To deliver AG56 to a HEK-293 cell, a “Ψ”-shaped flow device was used. […] In all experiments reported in this study, a 6-second preincubation flow protocol was used for full aptamer preincubation. […] The corrected current amplitude was used for data analysis.
The use of this technique allows the investigation of the effect of AG56 on the channel-opening kinetic mechanism of the GluA2Qflip receptors. Before describing how the mechanism of inhibition is elucidated, the kinetic characterization of channel-opening rate process is presented.
A represents the active form of the receptor, L, the ligand, ALn the closed-channel forms, and ALn the open-channel form, K1 the intrinsic dissociation constant of activating ligand and Φ the channel opening equilibrium constant (Φ^−1=kcl/kop). Based on this mechanism and the assumption that the ligand-binding rate was fast as compared to the channel opening, the observed rate constant of channel opening or kobs can be formulated as in equ. 2.
In equ. 2, kcl is the channel-closing rate constant or the lifetime of the channel, τ (τ=1/kcl), kop is the channel-opening rate constant, and n the number of the ligand molecules to bind to the receptor complex to open the channel (i.e., n=1-4). Imax is the maximum current amplitude, and It is the current amplitude at time t.
The mechanism of inhibition was characterized by studying the effect of an inhibitor such as AG56 on the channel-opening rate process^13,14. In general there are three ways in which an ion channel receptor can be inhibited. For instance, an inhibitor binds only to the open-channel state or conformation and then inhibits it (Mechanism 1, uncompetitive mechanism of inhibition or open-channel blockade). Alternatively, an inhibitor binds to both the closed- and open-channel states through a regulatory site (Mechanism 2, noncompetitive mechanism). The observed rate constant, kobs in the presence and absence of an inhibitor can be measured using equ. 3. […] 4 for mechanism 1, and equ. 5 for mechanism 2.
In deriving these equations, one binding site for inhibitor per receptor molecule is assumed. […] 4 or 5 to the overall rate, kobs, is negligible. Under this condition, the effect of the inhibitor on the kcl can be measured^13. Specifically, for both Mechanisms 1 and 2, the effects of the inhibitor on kcl are the same, and can be obtained by equ. 6, which can be derived from either equ. 4 or 5. From equ. 6, the equilibrium dissociation constant of the inhibitor from the open-channel state, KI, can be determined.
For Mechanism 2 or a noncompetitive mechanism of inhibition, the inhibitor will affect kop additionally (equ. 8), if KI<I, I being the molar concentration used to measure the KI value. Consequently the dissociation constant of the inhibitor for the closed-channel conformation can be further determined for Mechanism 2. It should be emphasized that the presence of an inhibitory effect of a noncompetitive inhibitor is due to the fact that the inhibitor must first bind to the closed-channel conformation, as illustrated in Mechanism 2, shown above. […]

GluA2Qflip [2] = biological target: T1, GluA2Qflip; experiment: Homologous competitive binding assay (32P-labeled aptamer, membrane-bound receptor)
Description: Whether AG56 bound to the close-channel state or conformation, and if so, the affinity of binding were assayed by homologous competitive binding assay using ^32P-label^4. To do this, RNA was first dephosphorylated by using calf intestinal phosphatase (CIP), prior to the 5′-end ^32P-labeling^5. Labeled RNA was passed through a NucAway spin column (Applied Biosystem) to remove excess γ-^32P-ATP. Then, 1 μl of 10 nM of ^32P-labeled aptamer was mixed with 2 μg of yeast tRNA (Sigma) and a series of concentrations of unlabeled (cold) aptamer whose concentrations varied from 0-400 nM in the final reaction mix. The mixed aptamer sample was incubated first at 70° C. for 10 min and then at room temperature for 20 min, before mixed with the receptor. For receptor preparation, […] of the membrane-bound receptor was resuspended in 1× extracellular buffer with and without 1 mM of kainate (which corresponded to the open-channel state and the closed-channel state, respectively; for the latter, it corresponded to precisely the unliganded, closed-channel state). The final concentration for the receptor and for the hot aptamer, after mixing, was 0.4 nM and 0.1 nM, respectively. The mixture was incubated at 22° C. for 1 hour for binding. […] The radioactivity on the filter was quantified in a scintillation counter (Beckman LS6500). […]

[3] = 100 μM photolytically released glutamate

T1 sequence (P19491 22-883 isoform P19491-2): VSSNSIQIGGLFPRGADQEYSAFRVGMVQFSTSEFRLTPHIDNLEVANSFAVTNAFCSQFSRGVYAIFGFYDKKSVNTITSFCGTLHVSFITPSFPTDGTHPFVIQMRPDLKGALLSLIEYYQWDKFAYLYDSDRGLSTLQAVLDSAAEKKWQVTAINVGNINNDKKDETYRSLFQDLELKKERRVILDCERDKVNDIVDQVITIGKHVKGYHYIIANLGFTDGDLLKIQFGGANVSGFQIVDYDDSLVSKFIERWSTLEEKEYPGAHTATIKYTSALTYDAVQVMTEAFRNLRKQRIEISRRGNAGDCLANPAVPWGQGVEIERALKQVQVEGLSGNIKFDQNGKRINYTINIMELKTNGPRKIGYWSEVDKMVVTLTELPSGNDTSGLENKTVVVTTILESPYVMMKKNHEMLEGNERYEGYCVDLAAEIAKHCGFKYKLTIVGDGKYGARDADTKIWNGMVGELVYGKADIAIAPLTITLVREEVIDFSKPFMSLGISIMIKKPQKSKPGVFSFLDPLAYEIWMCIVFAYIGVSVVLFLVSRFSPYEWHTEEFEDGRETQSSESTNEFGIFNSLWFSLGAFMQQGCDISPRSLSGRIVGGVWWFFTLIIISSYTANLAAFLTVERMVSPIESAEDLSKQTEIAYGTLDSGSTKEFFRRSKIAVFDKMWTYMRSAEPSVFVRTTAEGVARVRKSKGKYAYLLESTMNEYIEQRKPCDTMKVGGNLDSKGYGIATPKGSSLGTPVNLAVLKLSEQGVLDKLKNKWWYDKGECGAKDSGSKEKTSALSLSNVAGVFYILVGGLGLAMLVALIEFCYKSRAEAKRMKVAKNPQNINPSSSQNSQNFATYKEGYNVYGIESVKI

Substance: AG56: 56-nucleotide truncated version of AG1407, RNA aptamer (GGGAGAUUGUGAAGCGUAGGCUCGAGUUUGUCCCGCGAGCCAAAGAUUCCAGACCC; RNA, backbone not given here)
- effect on channel-closing rate (kcl) (GluA2Qflip [1]; [3]): inhibited the rate of channel closing
- effect on current amplitude (GluA2Qflip [1]; [3]): did not affect the current amplitude
- kobs value, which reflected kcl (GluA2Qflip [1]; 100 μM photolytically released glutamate, +0.75 μM AG56 (control 2,200)): 1,600 s^−1
- kobs value, which reflected kop (GluA2Qflip [1]; 340 μM photolytically released glutamate, 0.75 μM AG56 (absence 5,128)): 4,405 s^−1
- effect on current amplitude (GluA2Qflip [1]; higher glutamate concentration): reduced the current amplitude
- effect on channel-opening rate constant (kop) (GluA2Qflip [1]; increased glutamate concentration): did not inhibit kop
- Kd (GluA2Qflip [2]; open-channel conformation (1 mM kainate)): 0.08 ± 0.023 µM
- Kd (GluA2Qflip [2]; unliganded, closed-channel conformation (without kainate)): 0.068 ± 0.04 µM
